Experiment [1] deals with T1, proMMP13(1-268) (SEQ ID NO:7) (Homo sapiens, UniProt P45452).
T1 construct: 6xHis (C); made in house; host or cells: HEK293 (transient, secreted)
As to the kind of experiment: ThermoFluor binding assay with proMMP13(1-268). Here is the method: The ThermoFluor® (TF) assay is a 384-well plate-based binding assay that measures thermal stability of proteins (Biomol Screen 2001, 6, 429-40; Biochemistry 2005, 44, 5258-66). The experiments were carried out using instruments available from Johnson & Johnson Pharmaceutical Research & Development, LLC. TF dye used in all experiments was […] (1,8-ANS) (Invitrogen: A-47).
Compounds were arranged in a pre-dispensed plate (Greiner Bio-one: 781280), wherein compounds were serially diluted in 100% DMSO across 11 columns within a series. Columns 12 and 24 were used as DMSO reference and contained no compound. For multiple compound concentration-response experiments, the compound aliquots (50 nL) were robotically predispensed directly into black 384-well polypropylene PCR microplates (Abgene: TF-0384/k) using a Cartesian Hummingbird liquid handler (DigiLab, Holliston, Mass.). Following compound dispense, protein and dye solutions were added to achieve the final assay volume of 3 μL. The assay solutions were overlayed with 1 μL of silicone oil (Fluka, type DC 200: 85411) to prevent evaporation.
Assay plates were robotically loaded onto a thermostatically controlled PCR-type thermal block and then heated from 40 to 90° C. at a ramp-rate of 1° C./min for all experiments. Fluorescence was measured by continuous illumination with UV light (Hamamatsu LC6) supplied via fiber optics and filtered through a band-pass filter (380-400 nm; >60D cutoff). Fluorescence emission of the entire 384-well plate was detected by measuring light intensity using a CCD camera (Sensys, Roper Scientific) filtered to detect 500±25 nm, resulting in simultaneous and independent readings of all 384 wells. A single image with 20-sec exposure time was collected at each temperature, and the sum of the pixel intensity in a given area of the assay plate was recorded vs temperature and fit to standard equations to yield the Tm (J Biomol Screen 2001, 6, 429-40).
Thermodynamic parameters necessary for fitting compound binding for each proMMP were estimated by differential scanning calorimetry (DSC) and from ThermoFluor® data. The heat capacity of unfolding for each protein was estimated from the molecular weight and from ThermoFluor® dosing data.
ThermoFluor® with proMMP13(1-268) (SEQ ID NO: 7)
The proMMP13(1-268) (SEQ ID NO:7) protein sample preparations included a desalting buffer exchange step via a PD-10 gravity column (GE Healthcare). The desalting buffer exchange was performed prior to diluting the protein to the final assay concentration of 3.5 μM. The concentration of proMMP13(1-268) (SEQ ID NO:7) was estimated spectrophotometrically based on a calculated extinction coefficient of ε280=37000 M^−1 cm^−1, a calculated molecular weight of 30.8 kDa, and calculated pI of 5.33. ThermoFluor® reference conditions were defined as follows: 100 μg/mL proMMP13(1-268) (SEQ ID NO:7), 25 μM 1,8-ANS, pH 7.0 Buffer (50 mM HEPES pH 7.0, 100 mM NaCl, 0.001% Tween-20, 2.5 mM MgCl2, 300 μM CaCl2). The thermodynamic parameters for proMMP13(1-268) (SEQ ID NO:7) are as follows: Tm (° C.)=67 (+/−0.1), ΔUH(Tm)) (cal mol^−1)=107000(+/−5000), ΔUSTm (cal mol^−1 K^−1)=318, ΔUCp (cal mol^−1 K^−1)=2600.
In general terms: Differential scanning fluorimetry follows unfolding on heating by fluorescence.

The target of experiment [2] is T2, full-length proMMP9(1-707) activation by catalytic MMP3 (Homo sapiens, UniProt P14780, R574P).
T2 construct: made in house; host or cells: proMMP9: HEK293 (secreted); MMP3: E. coli
T2 sequence (P14780 20-707 R574P): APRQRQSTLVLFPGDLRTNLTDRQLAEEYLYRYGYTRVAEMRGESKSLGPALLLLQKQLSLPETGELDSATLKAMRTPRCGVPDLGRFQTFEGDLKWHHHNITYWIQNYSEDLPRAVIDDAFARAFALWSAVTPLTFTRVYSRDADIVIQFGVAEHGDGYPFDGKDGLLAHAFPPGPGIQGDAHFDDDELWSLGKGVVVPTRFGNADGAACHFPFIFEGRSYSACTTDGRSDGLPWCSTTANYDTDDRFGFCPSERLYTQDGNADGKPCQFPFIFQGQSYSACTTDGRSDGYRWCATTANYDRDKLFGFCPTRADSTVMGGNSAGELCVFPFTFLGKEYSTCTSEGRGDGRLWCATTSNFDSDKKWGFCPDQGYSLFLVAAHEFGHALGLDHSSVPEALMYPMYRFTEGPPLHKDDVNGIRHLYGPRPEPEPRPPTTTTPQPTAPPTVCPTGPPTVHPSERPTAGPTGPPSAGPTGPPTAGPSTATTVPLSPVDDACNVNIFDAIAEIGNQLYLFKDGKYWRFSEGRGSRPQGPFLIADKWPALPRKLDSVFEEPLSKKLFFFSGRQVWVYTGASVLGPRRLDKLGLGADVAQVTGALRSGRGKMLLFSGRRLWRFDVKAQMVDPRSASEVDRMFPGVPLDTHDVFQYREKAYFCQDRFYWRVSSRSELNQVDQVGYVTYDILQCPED
As to the kind of experiment: proMMP9/MMP3 P126 Activation Assay. In kind it is biochemical. How it is done:
proMMP9/MMP3 P126 Activation Assay
The reaction volume was 50 μL. […] Reactivity of residual MMP3 towards P-126 substrate was minimal under these conditions.

Experiment [3] concerns the target T3, proMMP9(67-444;ΔFnII) (SEQ ID NO:5) (Homo sapiens, UniProt P14780, DEL216-390).
T3 construct: start methionine (N); made in house; host or cells: E. coli BL21(DE3) RIL
T3 sequence (P14780 with tags, fused parts or gaps DEL216-390): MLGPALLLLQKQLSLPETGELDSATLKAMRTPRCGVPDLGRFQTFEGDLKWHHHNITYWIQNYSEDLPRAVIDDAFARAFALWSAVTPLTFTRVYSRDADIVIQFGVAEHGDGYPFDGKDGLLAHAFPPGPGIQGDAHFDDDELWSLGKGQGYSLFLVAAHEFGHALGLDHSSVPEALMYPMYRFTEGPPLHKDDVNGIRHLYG
Description: ThermoFluor binding assay with proMMP9(67-444;ΔFnII). The essentials: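 Thermal shift of 3.5 μM proMMP9(67-444;ΔFnII), desalted beforehand, with 50 μM 1,8-ANS in 50 mM HEPES pH 7.0, 100 mM NaCl, 2.5 mM MgCl2, 300 μM CaCl2, 0.001% Tween-20. Heated 40–90 °C at 1 °C/min, fluorescence read at 500 nm; binding fitted from Tm shifts using DSC- and ThermoFluor-derived unfolding parameters.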

The target of experiment [4] is T4, proMMP9(20-445;ΔFnII) (SEQ ID NO:6) (Homo sapiens, UniProt P14780, DEL216-390).
T4 construct: start methionine (N); made in house; host or cells: E. coli BL21(DE3) RIL
T4 sequence (P14780 with tags, fused parts or gaps DEL216-390): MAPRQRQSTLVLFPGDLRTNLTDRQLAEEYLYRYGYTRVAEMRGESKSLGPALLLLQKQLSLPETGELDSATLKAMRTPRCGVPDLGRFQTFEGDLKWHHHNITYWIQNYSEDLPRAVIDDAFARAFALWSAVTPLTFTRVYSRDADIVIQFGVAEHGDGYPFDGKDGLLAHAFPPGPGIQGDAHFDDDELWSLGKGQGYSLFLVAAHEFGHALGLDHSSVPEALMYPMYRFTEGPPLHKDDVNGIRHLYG
As to the kind of experiment: ThermoFluor binding assay with proMMP9(20-445;ΔFnII). The essentials: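 Protein thermal stability was measured with 2.8 μM proMMP9(20-445;ΔFnII) and 50 μM 1,8-ANS in 50 mM HEPES pH 7.0, 100 mM NaCl, 0.001% Tween-20, 2.5 mM MgCl2, 300 μM CaCl2, across serial compound dilutions. Samples were heated 40–90° C at 1° C/min with fluorescence read at 500 nm. Tm was fitted, and binding was derived from thermodynamic parameters obtained by DSC and ThermoFluor.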

Molecules are shown by their SMILES. Counter-ions that a name gives are not always drawn.

The Kd is the free concentration of one partner at which half of the binding sites on the other are occupied at equilibrium, for simple one-to-one binding. The low end stands for a tighter complex, the high end for a looser complex. Broadly, the IC50 is the point on the concentration scale where inhibition reaches its midpoint. Read a high IC50 as weaker potency.

Turning to `CC(C)Oc1ccc(C(N)=O)cc1Nc1nc2c(ccc3[nH]c(=O)[nH]c32)s1` [Example 23, 4-Isopropoxy-3-(7-oxo-7,8-dihydro-6H-imidazo[4′,5′:3,4]benzo[2,1-d]thiazol-2-ylamino)-benzamide.TFA], the Kd amounted to 3000 nM in experiment [1], 970 nM in experiment [3] and 590 nM in experiment [4]. 840 nM corresponded to half-maximal inhibition in experiment [2] (IC50).
On the same counts, the results for `Cc1nc2c(ccc3sc(Nc4cc(C(N)=O)ccc4OC(C)C)nc32)[nH]1` [Example 19, 4-Isopropoxy-3-(7-methyl-6H-imidazo[4′,5′:3,4]benzo[2,1-d]thiazol-2-ylamino)-benzamide.HCl] are 2200 nM, 380 nM, 460 nM and 350 nM.
In the case of `COc1ccccc1Nc1nc2c(ccc3nc(N)sc32)s1` [Example 2, N^7-(2-Methoxy-phenyl)-benzo[1,2-d;3,4-d′]-bisthiazole-2,7-diamine.TFA], the equilibrium dissociation constant (Kd) in experiment [1] is 8700 nM; in experiment [3] it was 410 nM; in experiment [4] it was 2200 nM. In experiment [2], this compound displayed an IC50 of 1300 nM.
Regarding `CCS(=O)(=O)c1ccc(OC)c(Nc2nc3c(ccc4c3ncn4C)s2)c1` [Example 60, (5-Ethanesulfonyl-2-methoxy-phenyl)-(6-methyl-6H-imidazo[4′,5′:3,4]-benzo[2,1-d]thiazol-2-yl)-amine.HCl], the Kd amounted to 1500 nM in experiment [1], 970 nM in experiment [3] and 2800 nM in experiment [4]. This compound registered an IC50 in experiment [2] of 340 nM.
Taken in the same sequence, the figures for `COC(=O)c1ccc(OC)c(Nc2nc3c(ccc4c3ncn4C)s2)c1` [Example 61, 4-Methoxy-3-(6-methyl-6H-imidazo[4′,5′:3,4]benzo[2,1-d]thiazol-2-ylamino)-benzoic acid methyl ester.HCl] were 2100 nM, 860 nM, 3200 nM and 650 nM.
As for `COc1ccc(C)cc1Nc1nc2c(ccc3c2ncn3C)s1` [Example 41, (2-Methoxy-5-methyl-phenyl)-(6-methyl-6H-imidazo[4′,5′:3,4]benzo[2,1-d]thiazol-2-yl)-amine.HCl], the Kd in experiment [1] worked out at 7700 nM; in experiment [3], 900 nM; in experiment [4], 4200 nM. The compound also displayed an IC50 in experiment [2] of 720 nM.
Taken in the same sequence, the figures for `Nc1nc2c(ccc3sc(Nc4cccc(C(=O)O)c4)nc32)[nH]1` [Example 15, 3-(7-Amino-6H-imidazo[4′,5′:3,4]benzo[2,1-d]thiazol-2-ylamino)-benzoic acid.TFA] were 33000 nM, 9900 nM, > 95000 nM and 3500 nM.
With `CCCn1c(C)nc2c3nc(Nc4cc(C(N)=O)ccc4OC(C)C)sc3ccc21` [Example 36, 4-Isopropoxy-3-(7-methyl-6-propyl-6H-imidazo[4′,5′:3,4]benzo[2,1-d]thiazol-2-ylamino)-benzamide.HCl], the Kd in experiment [1] was found to be 2000 nM; in experiment [3], 710 nM; in experiment [4], 170 nM. Further, in experiment [2], half-maximal inhibition (IC50) was put at 300 nM.
Consider `CC(C)Oc1ccccc1Nc1nc2c(ccc3nc(N)sc32)s1` [Example 9, N^7-(2-Isopropoxy-phenyl)-benzo[1,2-d;3,4-d′]-bisthiazole-2,7-diamine.TFA], for which the Kd in experiment [1] was determined as 18000 nM; in experiment [3], 4400 nM; in experiment [4], 27000 nM. The compound further came in with an IC50 in experiment [2] of 10000 nM.
With `COc1ccc(C(N)=O)cc1Nc1nc2c(ccc3c2ncn3C)s1` [Example 39, 4-Methoxy-3-(6-methyl-6H-imidazo[4′,5′:3,4]benzo[2,1-d]thiazol-2-ylamino)-benzamide.HCl], the values for the Kd in experiment [1], in experiment [3] and in experiment [4] were 1500 nM, 52 nM and 440 nM, respectively. In experiment [2], this compound returned an IC50 of 94 nM.
On to `Cn1cnc2c3nc(Nc4ccccc4OCC(F)(F)F)sc3ccc21` [Example 43, (6-Methyl-6H-imidazo[4′,5′:3,4]-benzo[2,1-d]thiazol-2-yl)-[2-(2,2,2-trifluoro-ethoxy)-phenyl]-amine.HCl], for which the Kd in experiment [1] was > 95000 nM; in experiment [3], 2800 nM; in experiment [4], 17000 nM. The same compound had an IC50 in experiment [2] of 2500 nM.

Source of the values: patent US20120129811A1, “TRICYCLIC INHIBITORS OF PRO-MATRIX METALLOPROTEINASE ACTIVATION” (priority 2010, published 2012).
